Measured values: patent EP4711368A1 (priority 2023, dated 2024)
Where two headings read alike, the source gives them in different places.

Columns and labels:
SD rats [1] = experiment: animal or person; format: in vivo; conditions: iv; for minimal effective dose: Rattus norvegicus
SD rats [2] = conditions: rat, in vivo; for MLD: iv
[3] = read-out: Minimal effective anesthetic dose
[4] = read-out: Minimal effective analgesic dose

| Compound | Minimal effective anesthetic dose (SD rats [1]; rat, in vivo) [mg/kg] | Onset time (SD rats [1]; rat, in vivo) [min] | Righting feflex duration (SD rats [1]; rat, in vivo) [min] | Sedation Duration (SD rats [1]; rat, in vivo) [min] | TI (SD rats [2]) | MLD (SD rats [2]) [mg/kg] | minimal effective dose (SD rats [1]; [3]) [mg/kg] | TI (SD rats [2]; SD) | MLD (SD rats [2]; SD) [mg/kg] | Minimal effective analgesic dose (SD rats [1]; rat, in vivo) [mg/kg] | minimal effective dose (SD rats [1]; [4]) [mg/kg] |
| --- | --- | --- | --- | --- | --- | --- | --- | --- | --- | --- | --- |
| COC(=O)CCC1N=C(c2ccccn2)c2cc([N+](=O)[O-])ccc2N(C)C1=O (stereo not shown) [Compound 27] | 10.0 | 0.2 to 0.5 | 1.3 to 3.9 | 4.4 to 10.7 | >1.8 | >18 | – | – | – | – | – |
| CC(=O)OC1N=C(c2ccccn2)c2cc(Br)ccc2N(C)C1=O (stereo not shown) [Compound 164] | 5.0 | 0.2 to 1.0 | 1.2 to 50.4 | 116.7 to 284.0 | 8.0 | 40 | – | – | – | – | – |
| CN1C(=O)N(CCc2cccs2)N=C(c2ccccn2)c2cc(Br)ccc21 [Compound 284] | – | 0.2 | 20 | 70.72 | – | – | 40 | >1 | >40 | – | – |
| CCC(=O)OCCC1N=C(c2ccccn2)c2cc(Br)ccc2-n2c(C)cnc21 (stereo not shown) [Compound 147] | 2.5 | 0.2 to 0.5 | – | 27.0 to 48.7 | 6.0 | 15 | – | – | – | – | – |
| CN1C(=O)C(CO)N=C(c2ccccn2)c2cc(Br)ccc21 (stereo not shown) [Compound 37] | 5.0 | 0.3 to 0.6 | 0.7 to 5.8 | 15.3 to 21.3 | >2.0 | >10 | – | – | – | – | – |
| Cc1cnc2n1-c1ccc(Br)cc1C(c1ccccn1)=NC2CCOC(=O)CCl (stereo not shown) [Compound 148] | 1.8 | 0.2 to 1.1 | 1.0 to 60.8 | 20.1 to 82.4 | 33.3 | 60 | – | – | – | – | – |
| CC(C)OC(=O)OC1N=C(c2ccccn2)c2cc(Br)ccc2N(C)C1=O (stereo not shown) [Compound 166] | 20.0 | 0.4 | 20.7 | 64.0 | 2.0 | 38.9 | – | – | – | 20 | – |
| CCC(CC)OC(=O)CN1N=C(c2ccccn2)c2cc(Br)ccc2N(C)C1=O [Compound 247] | – | 0.28 | 30.15 | 88.25 | – | – | 20 | 1.5 | 30 | – | 20 |
| CC(=O)OCCC1N=C(c2ccccn2)c2cc(Br)ccc2-n2c(C)cnc21.O=S(=O)(O)c1ccccc1 (stereo not shown) [Compound 145D] | 7.5 | 0.2 to 0.5 | 1.7 to 19.9 | 23.0 to 63.0 | >2.3 | >16.9 | – | – | – | – | – |
| Cc1cnc2n1-c1ccc(Br)cc1C(c1ccccn1)=NN2CCOC(=O)N(C)C [Compound 317] | – | 0.22 to 0.38 | 4.08 to 25.97 | 18.73 to 70.28 | – | – | 5 | 4 | 20 | – | 10 |
| CC(C)N(C)C(=O)OCN1N=C(c2ccccn2)c2cc(Br)ccc2N(C)C1=O [Compound 293] | – | 0.95 | 4.20 | 82.85 | – | – | 15 | 1.3 | 20 | – | 15 |
| CC(C)OC(=O)CC1N=C(c2ccccn2)c2cc(Br)ccc2N(C)C1=O (stereo not shown) [Compound 114] | 0.5 | 0.4 to 1.1 | 0.8 to 27.6 | 16.5 to 140.3 | 40.0 | 20 | – | – | – | – | – |
| Cc1cnc2n1-c1ccc(Br)cc1C(c1ccccn1)=NC2CCOC(=O)N(C)C.O=S(=O)(O)c1ccccc1 (stereo not shown) [Compound 156D] | 5.0 | 0.2 to 0.6 | 0.6 to 10.9 | 12.8 to 36.9 | >1.5 | >7.5 | – | – | – | – | – |
| Cc1cnc2n1-c1ccc(Br)cc1C(c1ccccn1)=NC2CCOC(=O)CCCl (stereo not shown) [Compound 150] | 2.5 | 0.2 to 0.4 | 0.8 to 13.5 | 16.9 to 33.9 | 5.5 | 13.7 | – | – | – | – | – |
| CCN1C(=O)N(CC(=O)OC(C)C)N=C(c2ccccn2)c2cc(Br)ccc21 [Compound 256] | – | 0.17 to 0.50 | 0.32 to 26.03 | 13.38 to 59.65 | – | – | 5 | 6 | 30 | – | 10 |
